Experimental data published in paper PMC10058949, “Effect of N-Terminal Peptide Modifications on In Vitro and In Vivo Properties of ^177Lu-Labeled Peptide Analogs Targeting CCK2R” (Pharmaceutics, 2023).
Where two headings read alike, the source gives them in different places. Each block holds one compound with its values, some of them ahead of it. Non-standard residues stand in square brackets, D forms with d. Residues, ends and D or L forms follow the SMILES beside them. *: point of attachment. DOTA = O=C(O)CN1CCN(CC(=O)O)CCN(CC(=O)*)CCN(CC(=O)O)CC1; 1Nal = N[C@@H](Cc1cccc2ccccc12)C(=O)O; NMeNle = CCCC[C@H](NC)C(=O)O

How the values were obtained:
CCK2R = target: T1, CCK2R (Homo sapiens, UniProt P32239); assay: Competition assay against [125I][3-iodo-Tyr12,Leu15]gastrin-I on A431-CCK2R cells; format: binding
T1 construct: expressed in transfected cells; host or cells: A431 human epidermoid carcinoma cells (A431-CCK2R, from Dr. Luigi Aloj)
T1 sequence (P32239 1-447): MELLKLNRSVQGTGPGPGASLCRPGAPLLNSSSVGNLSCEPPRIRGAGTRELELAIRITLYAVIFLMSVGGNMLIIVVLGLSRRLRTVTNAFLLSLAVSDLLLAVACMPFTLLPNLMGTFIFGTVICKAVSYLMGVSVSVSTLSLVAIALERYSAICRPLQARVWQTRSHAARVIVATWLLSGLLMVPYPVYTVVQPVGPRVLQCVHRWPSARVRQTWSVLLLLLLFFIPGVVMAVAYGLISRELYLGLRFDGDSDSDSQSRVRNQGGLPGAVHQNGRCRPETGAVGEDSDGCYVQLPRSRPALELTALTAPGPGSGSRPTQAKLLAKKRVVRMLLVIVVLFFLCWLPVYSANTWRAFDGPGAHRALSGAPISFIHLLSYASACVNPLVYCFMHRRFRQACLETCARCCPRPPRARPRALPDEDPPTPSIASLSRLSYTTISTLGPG
Protocol: Binding experiments were performed using 96-well filter plates (MultiScreenHTS-FB, Merck Group, Darmstadt, Germany) washed with 10 mM TRIS/139 mM NaCl pH 7.4 (2 × 250 µL). For the experiment, 0.4 × 10^6 A431-CCK2R cells in 100 µL binding buffer (20 mM HEPES buffer with pH 7.4 and 10 mM MgCl2, 14 µM bacitracin, and 0.5% BSA) were added to each well. Fifty µL of [^125I][3-iodo-Tyr^12,Leu^15]gastrin-I (~25,000 cpm) and 50 µL of different dilutions of the peptide conjugates (reaching final concentrations of 0.0003–1000 nM) were added and the cells were incubated in triplicates for 1 h at room temperature. […] Incubation was interrupted by filtration of the medium and rapid rinsing with ice-cold 10 mM TRIS/139 mM NaCl pH 7.4 (2 × 200 µL). The filters were collected and counted in a γ-counter (2480 Wizard2 3”, PerkinElmer Life Sciences and Analytical Sciences, formerly Wallac Oy, Turku, Finland). Half-maximal inhibitory concentration (IC50) values were calculated following nonlinear regression with Origin software (Microcal Origin 6.1, Northampton, MA, USA).

[1] = Biodistribution 4 h p.i. in A431-CCK2R/A431-mock xenografted BALB/c nude mice; format: in vivo; details: female, BALB/c nude, mouse, in vivo, iv, 20 pmol, total radioactivity
Protocol: (§1) Then, after 7–11 days, when visible tumor xenografts were formed, groups of 5 mice were injected intravenously via a lateral tail vein with ~0.5 MBq of radiolabeled peptide, corresponding to 20 pmol of peptide, in a total volume of ~150 µL in PBS/0.5% BSA. Using an additional mouse per group, a blocking study was performed by co-injecting a 1000-fold molar excess of the respective peptide analog (20 nmol) together with the radiolabeled peptide. For quantification, a 1:1, 1:10 and 1:50 standard was prepared using aliquots of the injection solution mixed with PBS/0.5% BSA. Mice were euthanized by cervical dislocation 4 h after injection. Subsequently, a blood sample was collected, and different tissues were dissected. All samples, as well as the rest of the body were weighed, and the activity measured in the γ-counter together with the standard. Results were expressed as percentage of injected activity per gram of tissue (%IA/g).

[2] = Octanol/PBS distribution coefficient (logD7.4); format: physicochemical; details: pH 7.4
Protocol: (§2) The stability studies with the ^177Lu-labeled peptide analogs were carried out at a concentration of 0.5 nmol peptide/mL in fresh human serum (n = 2) for up to 24 h. A mixture of 0.05 nmol/mL of the radiolabeled peptides in PBS and octanol (1/1, v/v) was used to evaluate the octanol/PBS distribution coefficient (logD7.4; n = 8). To determine the protein binding in human serum by Sephadex G-50 size-exclusion chromatography (GE Healthcare Illustra, Little Chalfont, UK), a 25 µL serum sample was used for different time points after incubation. All steps were performed according to previously published protocols.

[3] = Biodistribution blocking experiment with 1000-fold excess of non-radiolabeled peptide; format: in vivo, mice; details: female, BALB/c nude, mouse, in vivo, iv, total radioactivity, blocking
Protocol: as §1

human serum proteins = assay: Protein binding in human serum by Sephadex G-50 size-exclusion chromatography; format: in vitro ADME
Protocol: as §2

Compound: CCCC[C@@H](C(=O)N[C@@H](CC(=O)O)C(=O)N[C@@H](Cc1cccc2ccccc12)C(N)=O)N(C)C(=O)[C@H](Cc1c[nH]c2ccccc12)NC(=O)CNC(=O)[C@H](Cc1ccc(O)cc1)NC(=O)[C@H](C)NC(=O)[C@@H](CCC(=O)O)NC(=O)[C@@H](CCC(=O)O)NC(=O)[C@@H](CCC(=O)O)NC(=O)[C@@H](CCC(=O)O)NC(=O)[C@@H](CCC(=O)O)NC(=O)[C@@H](CCC(=O)O)NC(=O)CN1CCN(CC(=O)O)CCN(CC(=O)O)CCN(CC(=O)O)CC1 [Peptide 1, DOTA-(DGlu)6-Ala-Tyr-Gly-Trp-(N-Me)Nle-Asp-1Nal-NH2] ({DOTA}-[dE][dE][dE][dE][dE][dE]AYGW[NMeNle]D[1Nal]-NH2)
IC50 (CCK2R): 0.18 ± 0.02 nM

IC50 (CCK2R; A431-CCK2R cells, 1 h room temperature, n = 3, read-out: IC50): 0.24 nM
Compound: CCCC[C@@H](C(=O)N[C@@H](CC(=O)O)C(=O)N[C@@H](Cc1cccc2ccccc12)C(N)=O)N(C)C(=O)[C@H](Cc1c[nH]c2ccccc12)NC(=O)CCNC(=O)CC(O)CNC(=O)CC(O)CNC(=O)CN1CCN(CC(=O)O)CCN(CC(=O)O)CCN(CC(=O)O)CC1 (stereo partly drawn) [Peptide 2, DOTA-(GABOB)2-βAla-Trp-(N-Me)Nle-Asp-1Nal-NH2]

Compound: CCCC[C@@H](C(=O)N[C@@H](CC(=O)O)C(=O)N[C@@H](Cc1cccc2ccccc12)C(N)=O)N(C)C(=O)[C@H](Cc1c[nH]c2ccccc12)NC(=O)CNC(=O)[C@H](Cc1ccc(O)cc1)NC(=O)[C@H](C)NC(=O)[C@@H](CCC(=O)O)NC(=O)[C@@H](CCC(=O)O)NC(=O)[C@@H](CCC(=O)O)NC(=O)[C@@H](CCC(=O)O)NC(=O)[C@@H](CCC(=O)O)NC(=O)[C@@H](CCC(=O)O)NC(=O)CN1CCN(CC(=O)O)CCN(CC(=O)O)CCN(CC(=O)O)CC1 [[^177Lu]Lu-1, metal not drawn] ({DOTA}-[dE][dE][dE][dE][dE][dE]AYGW[NMeNle]D[1Nal]-NH2)
tissue uptake at 4 h ([1]; uptake in A431-CCK2R xenografts): 22.2 ± 6.23 %ID/g
tissue uptake at 4 h ([1]; uptake in A431-mock xenografts): 0.14 ± 0.04 %ID/g
tissue uptake at 4 h ([1]; uptake in blood): 0.02 %ID/g
tissue uptake at 4 h ([1]; uptake in femur): 0.21 ± 0.05 %ID/g
tissue uptake at 4 h ([1]; uptake in heart): 0.06 ± 0.01 %ID/g
tissue uptake at 4 h ([1]; uptake in intestine): 0.42 ± 0.07 %ID/g
tissue uptake at 4 h ([1]; uptake in kidneys): 21.6 ± 2.11 %ID/g
tissue uptake at 4 h ([1]; uptake in liver): 2.48 ± 0.39 %ID/g
tissue uptake at 4 h ([1]; uptake in lung): 0.12 ± 0.04 %ID/g
tissue uptake at 4 h ([1]; uptake in muscle): 0.04 ± 0.02 %ID/g
tissue uptake at 4 h ([1]; uptake in pancreas): 1.25 ± 0.27 %ID/g
tissue uptake at 4 h ([1]; uptake in spleen): 1.86 ± 0.62 %ID/g
tissue uptake at 4 h ([1]; uptake in stomach): 4.77 ± 1.1 %ID/g
logD [2]: -4.18 ± 0.24
tissue uptake at 4 h ([3]; uptake in A431-CCK2R xenograft): 0.45 %ID/g
tissue uptake at 4 h ([3]; uptake in A431-mock xenograft): 0.12 %ID/g
tissue uptake at 4 h ([3]; uptake in blood): 0.03 %ID/g
tissue uptake at 4 h ([3]; uptake in femur): 0.18 %ID/g
tissue uptake at 4 h ([3]; uptake in heart): 0.05 %ID/g
tissue uptake at 4 h ([3]; uptake in lung): 0.06 %ID/g
tissue uptake at 4 h ([3]; uptake in pancreas): 0.05 %ID/g
tissue uptake at 4 h ([3]; uptake in stomach): 0.06 %ID/g
change in binding to human serum proteins compared to [177Lu]Lu-DOTA-MGS5 (human serum proteins): increased by a factor of two
